Test results published in patent publication US11965039B2, “Compstatin analogues and their medical uses” (priority 2018, dated 2024).
Starred links: 1 amine or outer side, 2 acyl side, 3 side chain; linkers in the order of their positions; H or OH if unused. Positions of bridges follow the written chain, without caps; N, C: chain ends. Non-standard residues stand in square brackets, D forms with d. Residues, ends and D or L forms follow the SMILES beside them. Groups on a side chain read outwards from the residue. *: point of attachment. Trp(1-Me) = Cn1cc(C[C@H](N)C(=O)O)c2ccccc21; C18 diacid = O=C(O)CCCCCCCCCCCCCCCCC(=O)*; γGlu = O=C(O)[C@H](CCC(=O)[*:2])N[*:1]; AEEA = NCCOCCOCC(=O)O; Sar = CNCC(=O)O

Tests used:
[1] = Pharmacokinetic half-life in non-human primates (serum, LC-MS/MS); type: in vivo, Cynomolgus monkeys (Macaca fascicularis); details: male, cynomolgus monkey, sc, NHP, single subcutaneous dose 1840 nmol/kg, * = approximate determination
Method: Healthy male Cynomolgus monkeys (Macaca fascicularis) received single subcutaneous administrations of each test substance. Compounds were formulated in 20 mM phosphate adjusted with NaOH to pH 7.5 and mannitol for isotonicity and dosed at 1840 nmol/kg. Blood was collected from a femoral vein from each animal at the following times: Pre-dose, 1, 2, 4, 8, 24, 48, 72, 96 and 120 h (10 sampling times). Blood was collected into serum separation tubes and allowed to clot at room temperature. The tubes were centrifuged and resulting serum was aliquoted and snap-frozen over dry-ice and stored at nominally −80° C. until analysis. All NHP studies were performed in accordance with animal welfare laws and regulations, including approval of the study by a local ethical review process.
In order to assess pharmacokinetic half-life (t ½), serum samples isolated from non-human primates at specific time points after dosing were analysed for total drug compound after sample preparation by solid phase extraction (SPE) and liquid chromatography mass spectrometry (LC-MS/MS) using analogue internal standard. Single measurement of serum concentrations were used for calculation of the pharmacokinetic parameters using the non-compartmental approach in Phoenix WinNonlin 6.3. Plasma terminal elimination half-life (t½) was determined as In(2)/λz where λz is the magnitude of the slope of the log linear regression of the log concentration versus time profile during the terminal phase.

[2] = system: classical complement pathway; experiment: In vitro haemolysis assay (inhibition of classical complement pathway); type: cell-based, human; details: human serum, sensitized sheep red blood cells; Table 3, given as upper bounds; read-out: IC50, inhibition of hemolysis
Procedure, shortened: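 Compound dilutions preincubated 15 min at room temperature with diluted human serum (titrated per batch for 70-90% maximal haemolysis), then antibody-sensitized sheep RBC (10^7/well) added for 30 min at 37 °C in Tris/casein buffer, pH 7.4. Stopped with EDTA; haemolysis read at 405 nm; IC50 by 4PL fit.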

[3] = Solubility test at 10 mg/mL (visual inspection and light scattering); type: physicochemical; details: for Solubility, Condition 1: Acetate pH 4; for Solubility, Condition 2: Acetate pH 5; for Solubility, Condition 3: Phosphate pH 6; for Solubility, Condition 4: Phosphate pH 7; for Solubility, Condition 5: Phosphate pH 7.5

## CC[C@H](C)[C@@H]1NC(=O)[C@@H](NC(=O)[C@H](Cc2ccc(O)cc2)NC(=O)[C@H](C)NC(=O)[C@H](CO)NC(=O)CNC(=O)[C@H](CCC(=O)O)NC(C)=O)CSSC[C@@H](C(=O)N(C)CC(=O)N[C@@H](CCC(=O)O)C(=O)N[C@@H](CCCCN)C(=O)N[C@@H](CCC(=O)N[C@@H](CCCCNC(=O)COCCOCCNC(=O)COCCOCCNC(=O)CC[C@H](NC(=O)CCCCCCCCCCCCCCCCC(=O)O)C(=O)O)C(N)=O)C(=O)O)NC(=O)[C@H](CCCNC(=N)N)NC(=O)[C@H](Cc2c[nH]cn2)NC(=O)[C@H](CCC(=O)O)NC(=O)CNC(=O)[C@H](Cc2c[nH]c3ccccc23)NC(=O)[C@H](CC(=O)O)NC(=O)[C@H](CCC(N)=O)NC(=O)[C@H](Cc2cn(C)c3ccccc23)NC1=O [Compound 111] (Ac-EGSAYCI[Trp(1-Me)]QDWGEHRC[Sar]EK[γGlu]K([AEEA-AEEA-γGlu-C18 diacid])-NH2; disulfide 6-16)
[1]
  half-life: ~157 h
[2]
  IC50: < 100 nM
[3]
  Solubility, Condition 1: − (“−” denotes lack of solubility at the given condition, as UV absorbance at 340 nm exceeds 0.1 AU and/or it is visibly turbid or contains particles)
  Solubility, Condition 2: − (“−” denotes lack of solubility at the given condition, as UV absorbance at 340 nm exceeds 0.1 AU and/or it is visibly turbid or contains particles)
  Solubility, Condition 3: + (“+” denotes solubility at the given condition, as determined by UV absorbance being less than 0.1 AU at 340 nm and the sample being clear when manually inspected)
  Solubility, Condition 4: + (“+” denotes solubility at the given condition, as determined by UV absorbance being less than 0.1 AU at 340 nm and the sample being clear when manually inspected)
  Solubility, Condition 5: + (“+” denotes solubility at the given condition, as determined by UV absorbance being less than 0.1 AU at 340 nm and the sample being clear when manually inspected)

## CC[C@H](C)[C@@H]1NC(=O)[C@@H](NC(=O)[C@H](Cc2ccc(O)cc2)NC(=O)[C@H](CCC(=O)O)NC(=O)[C@H](CO)NC(C)=O)CSSC[C@@H](C(=O)N(C)CC(=O)N[C@@H](CCC(=O)O)C(=O)NCC(=O)N[C@@H](C)C(=O)N[C@@H](CCCCNC(=O)COCCOCCNC(=O)CC[C@H](NC(=O)COCCOCCNC(=O)CNC(=O)CC[C@H](NC(=O)CCCCCCCCCCCCCCCCC(=O)O)C(=O)O)C(=O)O)C(N)=O)NC(=O)[C@H](CCCNC(=N)N)NC(=O)[C@H](Cc2c[nH]cn2)NC(=O)[C@H](CCC(=O)O)NC(=O)CNC(=O)[C@H](Cc2c[nH]c3ccccc23)NC(=O)[C@H](CC(=O)O)NC(=O)[C@H](CCC(N)=O)NC(=O)[C@H](Cc2cn(C)c3ccccc23)NC1=O [Compound 118] (Ac-SEYCI[Trp(1-Me)]QDWGEHRC[Sar]EGAK([AEEA-γGlu-AEEA-Gly-γGlu-C18 diacid])-NH2; disulfide 4-14)
[1]
  half-life: ~78.7 h
[2]
  IC50: < 100 nM
[3]
  Solubility, Condition 1: − (“−” denotes lack of solubility at the given condition, as UV absorbance at 340 nm exceeds 0.1 AU and/or it is visibly turbid or contains particles)
  Solubility, Condition 2: + (“+” denotes solubility at the given condition, as determined by UV absorbance being less than 0.1 AU at 340 nm and the sample being clear when manually inspected)
  Solubility, Condition 3: + (“+” denotes solubility at the given condition, as determined by UV absorbance being less than 0.1 AU at 340 nm and the sample being clear when manually inspected)
  Solubility, Condition 4: + (“+” denotes solubility at the given condition, as determined by UV absorbance being less than 0.1 AU at 340 nm and the sample being clear when manually inspected)
  Solubility, Condition 5: + (“+” denotes solubility at the given condition, as determined by UV absorbance being less than 0.1 AU at 340 nm and the sample being clear when manually inspected)
